Measured values from patent US8017612B2, “Piperazine compound and use thereof as a HCV polymerase inhibitor” (priority 2006, dated 2011).
Counter-ions that a name gives are not always drawn.

How the values were obtained:
[1] = target: T1, HCV polymerase (NS5B) type 1a (Hepatitis C virus genotype 1a, UniProt P26664); assay: Assay of enzyme (HCV polymerase) inhibitory activity, type 1a enzyme; assay type: biochemical, HCV type 1a (cloned from the blood of patients); details: HCV polymerase inhibitory activity (IC50), 1a, type 1a enzyme 1.5 μg/ml, 25° C., 60 min
T1 construct: made in house; host or cells: Escherichia coli (by the 'similar method' of the 1b enzyme)
Summary of the method: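 Patient-derived type 1a NS5B (C-terminal 47-aa deletion, His-tagged, E. coli-expressed) at 1.5 μg/ml was reacted with 5 μg/ml 3′UTR-containing substrate RNA, 50 μM ATP/GTP/CTP, 2 μM UTP plus [3H]UTP, pH 7.5, 25° C for 60 min. TCA-precipitated RNA radioactivity was counted; IC50 from ± compound.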

[2] = target: T2, HCV polymerase (NS5B) type 1b (Hepatitis C virus genotype 1b, UniProt P26663); assay: Assay of enzyme (HCV polymerase) inhibitory activity, type 1b enzyme; assay type: biochemical, HCV BK strain (type 1b); details: HCV polymerase inhibitory activity (IC50), 1b, type 1b enzyme 0.5 μg/ml, 25° C., 60 min
T2 construct: a region encoding NS5B (J Virol 1991 March, 65(3), 1105-13, 544 amino acids after deletion of 47 amino acids on the C-terminal); 6xHis (C); made in house; host or cells: Escherichia coli
Summary of the method: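 NS5B from HCV BK strain (type 1b), C-terminal 47 aa deleted, C-terminal His6-tagged, E. coli-expressed, 0.5 μg/ml, with ~450 nt substrate RNA carrying the 3′ UTR (polyU, 3′X) at 5 μg/ml. Incubation 60 min at 25 °C with 50 μM ATP/GTP/CTP, 2 μM UTP plus [3H]UTP, pH 7.5 Tris.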

Row | Structure (SMILES) | IC50 [1] [nM] | IC50 [2] [nM]
1 | CC(=O)N1CCN(S(=O)(=O)c2ccc(OC(F)(F)F)cc2)[C@@H](C(=O)NCc2ccccc2-c2ccccc2)C1 [Example 642, (R)-4-acetyl-1-(4-trifluoromethoxy-benzenesulfonyl)-piperazine-2-carboxylic acid (biphenyl-2-ylmethyl)-amide] | > 1000 | > 1000
2 | CC(=O)N1CCN(S(=O)(=O)c2ccc(OC(F)(F)F)cc2)[C@@H](C(=O)NCC2CCCCC2)C1 [Example 643, (R)-4-acetyl-1-(4-trifluoromethoxy-benzenesulfonyl)-piperazine-2-carboxylic acid cyclohexylmethyl-amide] | > 1000 | > 1000
3 | CC(=O)N1CCN(S(=O)(=O)c2ccc(OC(F)(F)F)cc2)[C@@H](C(=O)NCC2CCN(C(=O)OC(C)(C)C)CC2)C1 [Example 644, 4-({[(R)-4-acetyl-1-(4-trifluoromethoxy-benzenesulfonyl)-piperazine-2-carbonyl]-amino}-methyl)-piperidine-1-carboxylic acid tert-butyl ester] | > 1000 | > 1000
4 | COc1ccc(CNC(=O)[C@H]2CN(C(C)=O)CCN2S(=O)(=O)c2ccc(OC(F)(F)F)cc2)cc1O [Example 645, (R)-4-acetyl-1-(4-trifluoromethoxy-benzenesulfonyl)-piperazine-2-carboxylic acid 3-hydroxy-4-methoxy-benzylamide] | > 1000 | > 1000
5 | CCCc1ccc(CNC(=O)[C@H]2CN(C(C)=O)CCN2S(=O)(=O)c2ccc(OC(F)(F)F)cc2)c(=O)[nH]1 [Example 646, (R)-4-acetyl-1-(4-trifluoromethoxy-benzenesulfonyl)-piperazine-2-carboxylic acid (2-oxo-6-propyl-1,2-dihydro-pyridin-3-ylmethyl)-amide] | > 1000 | > 1000
6 | CCC(F)(F)c1ccc(CNC(=O)[C@H]2CN(c3nc4nsnc4nc3O)CCN2S(=O)(=O)c2ccc(OC(F)(F)F)cc2)cc1 [Example 647, (R)-4-(6-hydroxy-[1,2,5]thiadiazolo[3,4-b]pyrazin-5-yl)-1-(4-trifluoromethoxy-benzenesulfonyl)-piperazine-2-carboxylic acid 4-(1,1-difluoro-propyl)-benzylamide] | > 1000 | 100 to 1000
7 | CCC(F)(F)c1ccc(CNC(=O)[C@H]2CN(c3cnc4cnccc4n3)CCN2S(=O)(=O)c2ccc(OC(F)(F)F)cc2)cc1 [Example 648, (R)-4-pyrido[3,4-b]pyrazin-2-yl-1-(4-trifluoromethoxy-benzenesulfonyl)-piperazine-2-carboxylic acid 4-(1,1-difluoro-propyl)-benzylamide] | < 100 | < 100
8 | COc1nc(CNC(=O)[C@H]2CN(C(C)=O)CCN2S(=O)(=O)c2ccc(OC(F)(F)F)cc2)ccc1C [Example 649, (R)-4-acetyl-1-(4-trifluoromethoxy-benzenesulfonyl)-piperazine-2-carboxylic acid (6-methoxy-5-methyl-pyridin-2-ylmethyl)-amide] | > 1000 | > 1000
9 | CCC(F)(F)c1ccc(CNC(=O)[C@H]2CN(c3cnc4c(n3)NS(=O)(=O)NC4)CCN2S(=O)(=O)c2ccc(OC(F)(F)F)cc2)cc1 [Example 650, (R)-4-(2,2-dioxo-1,2,3,4-tetrahydro-2λ^6-pyrazino[2,3-c][1,2,6]thiadiazin-7-yl)-1-(4-trifluoromethoxy-benzenesulfonyl)-piperazine-2-carboxylic acid 4-(1,1-difluoro-propyl)-benzylamide] | 100 to 1000 | < 100
10 | CCOc1ccc(CNC(=O)[C@H]2CN(c3cnc4cncnc4n3)CCN2S(=O)(=O)c2ccc(OC(F)(F)F)cc2)cc1 [Example 651, (R)-4-pteridin-7-yl-1-(4-trifluoromethoxy-benzenesulfonyl)-piperazine-2-carboxylic acid 4-ethoxy-benzylamide] | < 100 | < 100
11 | O=C(NCc1ccc(-c2cccs2)cc1)[C@H]1CN(c2cnc3cncnc3n2)CCN1S(=O)(=O)c1ccc(OC(F)(F)F)cc1 [Example 652, (R)-4-pteridin-7-yl-1-(4-trifluoromethoxy-benzenesulfonyl)-piperazine-2-carboxylic acid 4-thiophen-2-yl-benzylamide] | < 100 | < 100
12 | O=C(NCc1ccc(Br)cc1)[C@H]1CN(c2cnc3cncnc3n2)CCN1S(=O)(=O)c1ccc(OC(F)(F)F)cc1 [Example 653, (R)-4-pteridin-7-yl-1-(4-trifluoromethoxy-benzenesulfonyl)-piperazine-2-carboxylic acid 4-bromo-benzylamide] | < 100 | < 100
13 | CC(=O)N1CCN(S(=O)(=O)c2ccc(OC(F)(F)F)cc2)[C@@H](C(=O)NCC2CCNCC2)C1 [Example 654, (R)-4-acetyl-1-(4-trifluoromethoxy-benzenesulfonyl)-piperazine-2-carboxylic acid (piperidin-4-ylmethyl)-amide hydrochloride] | > 1000 | > 1000
14 | CC(=O)N1CCN(S(=O)(=O)c2ccc(OC(F)(F)F)cc2)[C@@H](C(=O)NCc2ccc(Br)cc2)C1 [Example 655, (R)-4-acetyl-1-(4-trifluoromethoxy-benzenesulfonyl)-piperazine-2-carboxylic acid 4-bromo-benzylamide] | 100 to 1000 | 100 to 1000
15 | O=C(NCc1ccc(C2CC2)cc1)[C@H]1CN(c2cnc3cncnc3n2)CCN1S(=O)(=O)c1ccc(OC(F)(F)F)cc1 [Example 656, (R)-4-pteridin-7-yl-1-(4-trifluoromethoxy-benzenesulfonyl)-piperazine-2-carboxylic acid 4-cyclopropyl-benzylamide] | < 100 | < 100
16 | COCc1ccc(CNC(=O)[C@H]2CN(c3cnc4cncnc4n3)CCN2S(=O)(=O)c2ccc(OC(F)(F)F)cc2)cc1 [Example 657, (R)-4-pteridin-7-yl-1-(4-trifluoromethoxy-benzenesulfonyl)-piperazine-2-carboxylic acid 4-methoxymethyl-benzylamide] | < 100 | < 100
17 | COc1ccc(CNC(=O)[C@H]2CN(c3cnc4cncnc4n3)CCN2S(=O)(=O)c2ccc(OC(F)(F)F)cc2)cc1 [Example 658, (R)-4-pteridin-7-yl-1-(4-trifluoromethoxy-benzenesulfonyl)-piperazine-2-carboxylic acid 4-methoxy-benzylamide] | < 100 | < 100
18 | O=C(NCc1ccc(-c2cccs2)s1)[C@H]1CN(c2cnc3cncnc3n2)CCN1S(=O)(=O)c1ccc(OC(F)(F)F)cc1 [Example 659, (R)-4-pteridin-7-yl-1-(4-trifluoromethoxy-benzenesulfonyl)-piperazine-2-carboxylic acid ([2,2′]bithiophenyl-5-ylmethyl)-amide] | < 100 | < 100
19 | O=C(NCc1ccc(C(F)(F)F)cc1)[C@H]1CN(c2cnc3cncnc3n2)CCN1S(=O)(=O)c1ccc(OC(F)(F)F)cc1 [Example 660, (R)-4-pteridin-7-yl-1-(4-trifluoromethoxy-benzenesulfonyl)-piperazine-2-carboxylic acid 4-trifluoromethyl-benzylamide] | < 100 | < 100
